{"source": "patent US12559629B2", "about": "“Method for preparing a stable Trypan Blue solution” (BECKMAN COULTER, INC., priority 2020, dated 2026)", "key": {"[1]": {"conditions": "cited from earlier work"}, "[2]": {"assay": "Preliminary experiments: salt-induced precipitation/aggregation of 0.2% w/v aqueous Trypan Blue", "assay_type": "physicochemical"}, "[3]": {"assay": "Dye precipitation on mixing Nominal 0.4% Trypan Blue in NaCl with polycationic compounds", "assay_type": "physicochemical", "conditions": "Nominal 0.4% Trypan Blue in NaCl (0.20 mL) mixed with 0.5 mg mL^−1 compound in PBS (0.20 mL)", "excerpt": "In the present study, Trypan Blue was mixed with various cell culture medium containing polycationic compounds. Nominal 0.4% Trypan Blue in NaCl was mixed with PBS (negative control), kanamycin (a positively charged aminoglycoside), and spermidine (a positively charged polyamine). […] This effect can be reasonably generalized to other polycationic compounds, particularly those containing amine functional groups."}}, "note": "Read-outs that look alike come from different tables or passages of the source."}
{"molecule": "Cc1cc(-c2ccc(/N=N/c3ccc4c(S(=O)(=O)O)cc(S(=O)(=O)O)c(N)c4c3O)c(C)c2)ccc1/N=N/c1ccc2c(S(=O)(=O)O)cc(S(=O)(=O)O)c(N)c2c1O", "note": "[Evans Blue]", "values": [{"measurement": "Solubility of precipitate with neomycin", "setting": "[1]; pH 8.5", "value": "insoluble"}, {"measurement": "Solubility of precipitate with neomycin", "setting": "[1]; pH 10.4", "value": "dissolves"}]}
{"molecule": "Cc1cc(-c2ccc(/N=N/c3c(S(=O)(=O)O)cc4cc(S(=O)(=O)O)cc(N)c4c3O)c(C)c2)ccc1/N=N/c1c(S(=O)(=O)O)cc2cc(S(=O)(=O)O)cc(N)c2c1O", "note": "[Trypan Blue]", "values": [{"measurement": "Formation of red colored dye aggregates", "setting": "[2]; 0.2% w/v in deionized water, two weeks at 4° C.", "value": "did not form red colored dye aggregates"}]}
{"molecule": "[Cl-].[Cs+]", "note": "[cesium chloride]", "values": [{"measurement": "Dye aggregation of Trypan Blue in presence of salt", "setting": "[2]; 150 mM concentrations", "value": "produced dye aggregation"}]}
{"molecule": "[Cl-].[Li+]", "note": "[lithium chloride]", "values": [{"measurement": "Dye aggregation of Trypan Blue in presence of salt", "setting": "[2]; concentrations as high as 600 mM", "value": "did not promote dye aggregation"}]}
{"molecule": "O=P([O-])(O)O.[Na+]", "note": "[monosodium phosphate]", "values": [{"measurement": "Dye aggregation of Trypan Blue in presence of salt", "setting": "[2]; 150 mM sodium concentrations", "value": "promoted dye aggregation"}]}
{"molecule": "[Cl-].[K+]", "note": "[potassium chloride]", "values": [{"measurement": "Dye aggregation of Trypan Blue in presence of salt", "setting": "[2]; 150 mM concentrations", "value": "produced dye aggregation"}]}
{"molecule": "[Cl-].[Na+]", "note": "[sodium chloride]", "values": [{"measurement": "Precipitation of 0.2% w/v Trypan Blue", "setting": "[2]; 150 mM salt, storage for 16 hours at 4° C.", "value": "exhibited precipitation"}, {"measurement": "Precipitation of the dye from 0.2% w/v aqueous solution of Trypan Blue", "setting": "[2]; addition of 250 mM salt", "value": "rapid precipitation of the dye"}]}
{"molecule": "O=S([O-])[O-].[Na+].[Na+]", "note": "[sodium sulfite]", "values": [{"measurement": "Dye aggregation of Trypan Blue in presence of salt", "setting": "[2]; 150 mM sodium concentrations", "value": "promoted dye aggregation"}]}
{"molecule": "NCCCCNCCCN", "note": "[spermidine]", "values": [{"measurement": "Precipitation of Trypan Blue", "setting": "[3]", "value": "trigger immediate precipitation of Trypan Blue"}]}
